Measurements reported in patent US20120021468A1, “PRODUCTION OF L-RIBOSE AND OTHER RARE SUGARS” (ZUCHEM, INC., priority 2008, published 2012).

Assays:
[1] = molecular target: T1, Recombinant MDH (Apium graveolens, UniProt Q38707, C47S/T120I); assay: Relative reaction rates of substrates with recombinantly expressed MDH (NADH measured spectrophotometrically); assay type: biochemical; settings: recombinant MDH
T1 construct: An MDH gene was synthetically constructed for expression E. coli; made in house; host or cells: E. coli BL21, pTTQ18 plasmid
Experimental: (§1) Many different variables were studied to maximize the expression and activity of MDH. MDH activity was monitored with the conversion of D-mannitol to D-mannose in the presence of NAD. The conversion was monitored spectrophotometrically by measuring the increasing concentration of NADH, the cofactor product of the oxidation of mannitol to mannose. For a given experiment, lysate protein concentrations were normalized.
(§2) Substrate specificity of the recombinant MDH was also tested and compared with the published data on the natively expressed MDH. Recombinant expression of MDH in E. coli could cause subtle modifications to the tertiary structure of MDH and modify the substrate specificity. Several known substrates of the MDH were tested.[16]

[2] = system: HIV; settings: cited from earlier work
[3] = molecular target: T2, Recombinant MDH (Apium graveolens, UniProt Q38707); assay: Relative reaction rates of substrates with recombinantly expressed MDH (NADH measured spectrophotometrically); assay type: biochemical; settings: MDH expressed recombinantly; D-mannitol = 100%
T2 construct: An MDH gene was synthetically constructed for expression E. coli; made in house; host or cells: E. coli BL21, pTTQ18 plasmid
Experimental: as §1, §2

[4] = molecular target: T3, Native MDH (Apium graveolens, UniProt Q38707); settings: MDH expressed natively; D-mannitol = 100%; published data; cited from earlier work
T3 construct: compared with the published data on the natively expressed MDH; host or cells: celery (Apium graveolens), native expression

[5] = system: recombinant E. coli expressing MDH; assay: Effect of Zn2+ on L-ribose production from ribitol; assay type: cell-based; settings: LB, 100 g/L ribitol, 0.5% glycerol
Experimental: The cultures are analyzed for production of L-ribose vs. time. The optimum production of L-ribose occurs between 0.15 and 1.5 mM Zn^2+ with the best conversion at 0.5 mM ZnCl2 (FIG. 14).

[6] = molecular target: T4, Apium gravelons mannitol-1-dehydrogenase (MDH) (Apium graveolens, UniProt Q38707, C47S/T120I); assay: MDH activity in lysate with added divalent metal salts; assay type: biochemical
T4 construct: An MDH gene was synthetically constructed for expression E. coli; made in house; host or cells: E. coli BL21, pTTQ18 plasmid
Experimental: While not explicitly described in the literature, Apium gravelons mannitol-1-dehydrogenase (MDH) requires divalent metal ions, particularly Zn^2+ ions, for activity. The presence of ZnSO4 increases MDH activity. Cells expressing MDH were grown in rich media were harvested and lysed with BUGBUSTER® protein extraction reagent, Novagen, Madison, Wis. MDH activity was then tested with increasing concentrations of ZnSO4 in the presence of D-mannitol and NAD cofactor at pH 9.0. See, FIG. 11.

[7] = system: recombinant E. coli MDH strain; assay: Polyol bioconversion by the recombinant E. coli MDH strain, HPLC; assay type: cell-based; settings: strain with active phosphotransferase uptake system
Source text: It was hypothesized that the lack of conversion was due to the phosphotransferase uptake system for D-mannitol, galactitol, and D-sorbitol, which phosphorylates these polyols upon uptake.

[8] = system: E. coli production strain with inactive PEP-dependent phosphotransferase system; assay: Polyol conversion in shake flasks by mutagenized PTS-inactive E. coli MDH strain, HPLC; assay type: cell-based
Source text: This can be accomplished by PCR-based genetic deletion of phosphocarrier protein ptsH, phosphotransferase system enzyme I ptsI, and the glucose specific enzyme IIA PTS component crr, but could be accomplished by other genetic manipulation including deletion of the polyol specific PTS type II genes or other genetic or biochemical manipulation known to those skilled in the art. These mutations render the production strain unable to metabolize or phosphorylatively uptake D-mannitol, galactitol, or D-sorbitol.
Flasks contained LB, ampicillin, 250 μM ZnCl2, and 40 g/L galactitol, D-mannitol, or D-sorbitol. Cells were induced with 0.5 mM IPTG after 4 hrs growth at 37° C. and the temperature was reduced to 25° C. After 6 days of incubation, D-mannose had been created from D-mannitol with 12% conversion. D-sorbitol conversion to L-gulose ceased after 7 days with a final conversion of 12%. Following 14 days of reaction, L-galactose had been produced from galactitol with 40% conversion. The final products were characterized by non-chiral HPLC in comparison to their D-counterparts. Optical rotation was obtained by polarimetry and used to verify stereochemistry. This resulting strain is further capable of converting D-arabitol to D-lyxose at 24% conversion.

[9] = pH profile of MDH oxidation activity; assay type: biochemical; settings: relative to maximum at pH 9.0
Experimental: as §1
The pH profile for MDH for the oxidation reactions was also tested. […] This range could be beneficial for in vitro bioconversions with enzymatic NAD cofactor recycling methods. Increasing the activity of MDH at neutral pH could improve in vivo fermentation activity as the interior of the E. coli cell has a pH lower than 9.0.[21]

[10] = Thermostability of recombinant MDH in lysates; assay type: physicochemical; settings: after four hours of incubation at various temperatures, except at 25° C.
Experimental: The thermostability of recombinant MDH was also tested. Lysates containing MDH were incubated at various temperatures. Aliquots of MDH were removed at various times to measure MDH activity using the assay described above. See, FIG. 13.

[11] = MDH thermal stability: incubation at 43° C. followed by kinetic assay; assay type: physicochemical; settings: relative to WT
[12] = Fermentation of ribitol to L-ribose with wild-type MDH in E. coli; assay type: cell-based
Experimental: Because of the successes with the expression of MDH in E. coli, additional experiments were performed to determine the feasibility of the MDH system to produce L-ribose with MDH enzyme. Initial fermentation experiments were performed in shake-flasks using rich media and varying concentrations of ribitol. With 2% ribitol (w/v), the MDH-expressing strain converted approximately 25% of the ribitol to L-ribose with 48 hrs. The goal for this strain would be to have >90% conversion within 24-48 hrs.
One goal for the fermentation would be the synthesis of 100-150 g·L^−1 of L-ribose in 24-48 hrs with >90% conversion efficiency from ribitol. Initial fermentation results with the wild-type MDH show a productivity of approximately 35 g·L^−1 in 48 hrs with 30% ribitol converted.

Molecule: C[C@H](O)[C@@H](O)[C@@H](O)[C@H](O)CO [L-fucitol]
- relative reaction rate, % the rate of D-mannitol [1]: 10.5%

Molecule: Nc1ccn([C@@H]2CS[C@H](CO)O2)c(=O)n1 [Strain L-3TC]
- potency compared with the D-form of BCH-189 [2]: more potent

Molecule: OC[C@@H](O)[C@@H](O)[C@@H](O)CO [Ribitol]
- Relative reaction rates, Recombinant MDH [3]: 50%
- Relative reaction rates, Native MDH [4]: 36%

Molecule: [Cl-].[Cl-].[Zn+2] [ZnCl2]
- ZnCl2 concentration of best conversion [5]: 0.5 mM

Molecule: O=S(=O)([O-])[O-].[Ni+2] [NiSO4]
- inhibition of MDH activity compared to MDH without NiSO4 ([6]; 0.1 mM NiSO4): approximately 50%

Molecule: OC[C@@H](O)[C@@H](O)[C@H](O)[C@@H](O)CO [D-Sorbitol]
- Relative reaction rates, Recombinant MDH [3]: 5%
- conversion of polyol to sugar detected by HPLC [7]: none was detected
- final conversion of D-sorbitol to L-gulose ([8]; 40 g/L polyol, 25° C., ceased after 7 days): 12%
- Relative reaction rates, Native MDH [4]: 22%

Molecule: O=S(=O)([O-])[O-].[Zn+2] [Zn^2+]
- concentrations showing inhibition of MDH activity ([6]; D-mannitol, NAD, pH 9.0): above 1 μM
- increase of MDH activity compared to no added zinc ([6]; addition of 1 μM Zn2+, D-mannitol, NAD, pH 9.0): 50%

Molecule: OC[C@@H](O)[C@H](O)[C@@H](O)CO [Xylitol]
- Relative reaction rates, Recombinant MDH [3]: 1%
- Relative reaction rates, Native MDH [4]: 0%

Molecule: OC[C@@H](O)[C@@H](O)CO [Erythritol]
- Relative reaction rates, Recombinant MDH [3]: 4%
- Relative reaction rates, Native MDH [4]: 16%

Molecule: OC[C@@H](O)[C@@H](O)[C@H](O)[C@H](O)CO [D-Mannitol]
- Relative reaction rates, Recombinant MDH [3]: 100%
- conversion of polyol to sugar detected by HPLC [7]: none was detected
- conversion of D-mannitol to D-mannose ([8]; 40 g/L polyol, 25° C., after 6 days): 12%
- Relative reaction rates, Native MDH [4]: 100%

Molecule: OC[C@@H](O)C(O)[C@H](O)CO [D-Arabitol]
- Relative reaction rates, Recombinant MDH [3]: 33%
- conversion of D-arabitol to D-lyxose [8]: 24%
- Relative reaction rates, Native MDH [4]: 37%

Molecule: Nc1ccn(C2CSC(CO)O2)c(=O)n1 (racemic) [BCH-189, (±)-2,3-dideoxy-3′-thiacytidine]
- anti-HIV activity [2]: anti-HIV activity

Molecule: OC[C@@H](O)[C@H](O)[C@H](O)[C@@H](O)CO [galactitol]
- conversion of polyol to sugar detected by HPLC [7]: none was detected
- conversion of galactitol to L-galactose ([8]; 40 g/L polyol, 25° C., 14 days): 40%

B1: MDH: NAD-dependent mannitol-1-dehydrogenase from Apium graveolens, SEQ ID NO:2, wild type, expressed in E. coli (protein)
chain: MAKSSEIEHPVKAFGWAARDTTGLLSPFKFSRRATGEKDVRLKVLFSGVCHSDHHMIHNNWGFTTYPIVPGHEIVGVVTEVGSKVEKVKVGDNVGIGCLVGSCRSCESCCDNRESHCENIIDTYGSIYFDGTMTHGGYSDTMVADEHFILRWPKNLPLDSGAPLLCAGITTYSPLKYYGLDKPGTKIGVVGLGGLGHVAVKMAKAFGAQVTVIDISESKRKEALEKLGADSFLLNSDQEQMKGARSSLDGIIDTVPVNHPLAPLFDLLKPNGKLVMVGAPEKPFELPVFSLLKGRKLLGGTINGGIKETQEMLDFAAKHNITADVEVIPMDYVNTAMERLVKSDVRYRFVIDIANTMRTEESLGA
- residual activity at pH 7.0 [9]: 10%
- loss of MDH activity on incubation of lysates [10]: Most MDH activity was lost
- Ratio T1/2 [11]: 1.0
- ribitol converted to L-ribose ([12]; 2% ribitol (w/v), shake-flask, 48 hrs): approximately 25%
- ribitol converted ([12]; 48 hrs): 30%
- productivity of L-ribose ([12]; in 48 hrs, unoptimized E. coli strain): approximately 35 g·L^−1
